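Test compounds were applied to cells in 96-well plates for 48 hours at 5 doses. TGI marks complete inhibition of growth.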
How the values were obtained:
Assay in all cases: NCI-60 cell line screen, 48 h
[1] = test system: U251 CNS
[2] = test system: RPMI-8226 leukemia
[3] = test system: SK-MEL-2 melanoma
[4] = test system: K-562 leukemia
[5] = test system: SK-MEL-28 melanoma
[6] = test system: UACC-257 melanoma
[7] = test system: SN12C renal
[8] = test system: HOP-92 NSCLC
[9] = test system: SNB-19 CNS
[10] = test system: MALME-3M melanoma
[11] = test system: HT29 colon
[12] = test system: ACHN renal
[13] = test system: SK-MEL-5 melanoma
[14] = test system: IGROV1 ovarian
[15] = test system: HOP-62 NSCLC
[16] = test system: SF-295 CNS
[17] = test system: HCC-2998 colon
[18] = test system: LXFL 529 NSCLC
[19] = test system: M14 melanoma
[20] = test system: RXF 393 renal
[21] = test system: SF-268 CNS
[22] = test system: KM20L2 colon
[23] = test system: 786-0 renal
[24] = test system: KM12 colon
[25] = test system: SF-539 CNS
[26] = test system: EKVX NSCLC
[27] = test system: SW-620 colon
[28] = test system: SR leukemia
[29] = test system: HL-60(TB) leukemia
[30] = test system: UO-31 renal
[31] = test system: OVCAR-5 ovarian
[32] = test system: DMS 114 small cell lung
[33] = test system: DMS 273 small cell lung
[34] = test system: A549 NSCLC
[35] = test system: DLD-1 colon
[36] = test system: OVCAR-3 ovarian
[37] = test system: NCI-H23 lung
[38] = test system: CCRF-CEM leukemia
[39] = test system: SK-OV-3 ovarian
[40] = test system: HCT-15 colon
[41] = test system: M19-MEL melanoma
[42] = test system: MOLT-4 leukemia
[43] = test system: NCI-H460 lung
[44] = test system: OVCAR-8 ovarian
[45] = test system: COLO 205 colon
[46] = test system: SNB-75 CNS
[47] = test system: HCT-116 colon
[48] = test system: UACC-62 melanoma
[49] = test system: OVCAR-4 ovarian
[50] = test system: HOP-18 NSCLC
[51] = test system: SNB-78 CNS
[52] = test system: NCI-H522 lung
[53] = test system: TK-10 renal
[54] = test system: A498 renal
[55] = test system: LOX IMVI melanoma
[56] = test system: CAKI-1 renal
[57] = test system: NCI-H226 lung

Measured: TGI

Cc1noc(C)c1C1=CCCCc2ccccc21
85.1 µM: [8]
> 100 µM: [1] | [2] | [3] | [4] | [5] | [6] | [7] | [9] | [10] | [11] | [12] | [13] | [14] | [15] | [16] | [17] | [18] | [19] | [20] | [21] | [22] | [23] | [24] | [25] | [26] | [27] | [30] | [31] | [32] | [33] | [34] | [35] | [36] | [37] | [38] | [39] | [40] | [41] | [42] | [43] | [44] | [45] | [47] | [48] | [49] | [50] | [51] | [52]
88.2 µM: [46]
74.9 µM: [28]
62.7 µM: [29]

Cc1ccc(O)c(N=Nc2ccc(S(=O)(=O)O)cc2)n1
47.9 µM: [26]
> 100 µM: [1] | [2] | [4] | [5] | [7] | [8] | [12] | [13] | [14] | [16] | [18] | [19] | [20] | [21] | [22] | [53] | [23] | [25] | [27] | [54] | [29] | [30] | [32] | [33] | [55] | [34] | [35] | [37] | [38] | [39] | [56] | [40] | [41] | [42] | [43] | [44] | [45] | [47] | [48] | [50] | [52]

CCCCCCC1NN(C(C)=O)C(CCCCCC)NN1C(C)=O (stereo not drawn)
> 100 µM: [1] | [3] | [4] | [6] | [7] | [8] | [9] | [10] | [11] | [12] | [13] | [14] | [15] | [16] | [57] | [17] | [18] | [19] | [22] | [53] | [23] | [24] | [25] | [26] | [29] | [30] | [31] | [33] | [35] | [36] | [37] | [38] | [39] | [56] | [40] | [41] | [42] | [44] | [45] | [46] | [47] | [48] | [49] | [50] | [52]
33.7 µM: [43]
46.1 µM: [27]
46.7 µM: [55]
67.4 µM: [2]

From PubChem BioAssay (NCI)
